The subject of this experiment is HepG2. Briefly: Induction of apoptosis in human HepG2 cells assessed as early apoptotic cells at 5 uM incubated for 24 hrs under 10 J/cm2 light irradiation by annexin V-FITC/propidium iodide staining based flow cytometry (Rvb= 0.43 %). Type of experiment: functional. (Flow cytometry measures light scatter and fluorescence of single cells or particles in a stream.)

Each structure is given as a SMILES string.

Turning to `C=Cc1c(C)c2cc3nc(c(CC(=O)NCCOCCOCCOCCC(=O)OCCN4CCN(c5cc(Nc6ncc(C(=O)Nc7c(C)cccc7Cl)s6)nc(C)n5)CC4)c4[nH]c(cc5nc(cc1[nH]2)C(C)=C5CC)c(C)c4C(=O)O)[C@@H](CCC(=O)O)[C@@H]3C`, the Activity is 11.6%.

Values taken from ChEMBL document CHEMBL5634105, “Novel chlorin e6-based conjugates of tyrosine kinase inhibitors: Synthesis and photobiological evaluation as potent photosensitizers for photodynamic therapy” (Eur J Med Chem, 2023).
